From patent US20230150974A1 (Foghorn Therapeutics Inc., priority 2020, published 2023) come the findings set out here.

The target of one assay is T1, HiBiT-BRM (Homo sapiens, UniProt P51531).
T1 construct: expressed in transfected cells
As to the kind of experiment: HiBiT-BRM cell-based degradation assay (Nano-Glo HiBiT Lytic Detection). The following applies: HeLa cells expressing HiBiT-BRM, 24 h; for DC50: read-out: BRM HiBit Degradation IC50. A digest of the protocol: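 HeLa cells stably expressing HiBiT-tagged BRM were treated for 24 h, then lysed with LgBiT-containing Nano-Glo reagent and luminescence read. % degradation scaled between DMSO (high control) and 2 μM reference BRM/BRG1 degrader (low control).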
Background: HiBiT is a short tag that completes a luciferase, so light tracks the accessible tagged protein.

The next assay addresses T2, HiBit-BRG1 (Homo sapiens, UniProt P51532).
T2 construct: expressed in transfected cells
As to the kind of experiment: HiBit-BRG1 cell-based degradation assay (Nano-Glo HiBiT Lytic Detection). The following applies: HeLa cells expressing HiBit-BRG1 and LgBit, 24 h; for DC50: read-out: BRG1 HiBit Degradation IC50; for Dmax: read-out: BRG1 HiBit Degradation Maximum (%). A digest of the protocol:
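HeLa cells stably expressing HiBiT-BRG1 plus LgBit, 5000/well, treated 24 h, then lysed with Nano-Glo HiBiT lytic reagent and luminescence read. % degradation normalised between DMSO (high control) and 2 μM reference BRM/BRG1 degrader (low control).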

Structures can show the parent of a compound that is named as a salt.

T1 sequence (P51531 whole entry): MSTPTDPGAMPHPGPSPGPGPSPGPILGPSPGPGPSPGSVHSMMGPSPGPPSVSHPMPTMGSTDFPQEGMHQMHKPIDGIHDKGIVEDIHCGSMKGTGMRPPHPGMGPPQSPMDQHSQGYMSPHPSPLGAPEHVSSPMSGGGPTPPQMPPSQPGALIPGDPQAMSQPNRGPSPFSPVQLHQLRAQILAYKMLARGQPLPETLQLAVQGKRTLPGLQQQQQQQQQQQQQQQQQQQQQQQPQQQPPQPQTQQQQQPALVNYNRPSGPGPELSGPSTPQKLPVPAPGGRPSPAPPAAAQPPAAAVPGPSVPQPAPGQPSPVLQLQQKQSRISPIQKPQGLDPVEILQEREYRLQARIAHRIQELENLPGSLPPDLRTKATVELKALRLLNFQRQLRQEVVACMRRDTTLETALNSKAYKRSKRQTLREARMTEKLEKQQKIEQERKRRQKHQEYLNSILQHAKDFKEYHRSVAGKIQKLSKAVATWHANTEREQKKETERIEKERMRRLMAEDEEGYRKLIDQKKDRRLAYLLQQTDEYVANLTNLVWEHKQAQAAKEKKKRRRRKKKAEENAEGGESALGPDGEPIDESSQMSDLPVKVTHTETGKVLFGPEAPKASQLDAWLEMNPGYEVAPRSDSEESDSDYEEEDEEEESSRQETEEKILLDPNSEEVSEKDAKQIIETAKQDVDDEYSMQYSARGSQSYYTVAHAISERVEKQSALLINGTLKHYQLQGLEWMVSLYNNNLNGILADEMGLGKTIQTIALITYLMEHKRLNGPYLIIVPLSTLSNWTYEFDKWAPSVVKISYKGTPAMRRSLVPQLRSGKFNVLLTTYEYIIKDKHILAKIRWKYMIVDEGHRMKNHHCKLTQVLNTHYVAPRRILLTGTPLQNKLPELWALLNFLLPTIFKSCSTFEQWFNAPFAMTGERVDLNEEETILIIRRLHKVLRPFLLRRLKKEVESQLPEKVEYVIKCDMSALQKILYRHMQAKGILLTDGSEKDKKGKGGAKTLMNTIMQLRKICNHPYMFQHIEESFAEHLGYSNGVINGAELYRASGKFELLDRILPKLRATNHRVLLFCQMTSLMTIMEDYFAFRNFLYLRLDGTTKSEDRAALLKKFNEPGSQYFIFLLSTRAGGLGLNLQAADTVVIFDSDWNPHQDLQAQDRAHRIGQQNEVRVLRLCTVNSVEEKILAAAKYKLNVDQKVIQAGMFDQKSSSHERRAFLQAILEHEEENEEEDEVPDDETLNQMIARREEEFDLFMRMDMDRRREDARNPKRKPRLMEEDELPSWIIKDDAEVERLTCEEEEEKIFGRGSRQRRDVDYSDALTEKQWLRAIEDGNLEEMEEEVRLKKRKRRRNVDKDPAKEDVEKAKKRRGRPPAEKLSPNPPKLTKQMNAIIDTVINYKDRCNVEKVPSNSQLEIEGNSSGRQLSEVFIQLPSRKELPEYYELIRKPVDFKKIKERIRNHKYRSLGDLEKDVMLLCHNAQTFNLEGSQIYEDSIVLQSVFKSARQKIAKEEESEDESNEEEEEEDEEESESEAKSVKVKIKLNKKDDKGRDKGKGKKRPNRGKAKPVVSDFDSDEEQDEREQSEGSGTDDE
T2 sequence (P51532 whole entry): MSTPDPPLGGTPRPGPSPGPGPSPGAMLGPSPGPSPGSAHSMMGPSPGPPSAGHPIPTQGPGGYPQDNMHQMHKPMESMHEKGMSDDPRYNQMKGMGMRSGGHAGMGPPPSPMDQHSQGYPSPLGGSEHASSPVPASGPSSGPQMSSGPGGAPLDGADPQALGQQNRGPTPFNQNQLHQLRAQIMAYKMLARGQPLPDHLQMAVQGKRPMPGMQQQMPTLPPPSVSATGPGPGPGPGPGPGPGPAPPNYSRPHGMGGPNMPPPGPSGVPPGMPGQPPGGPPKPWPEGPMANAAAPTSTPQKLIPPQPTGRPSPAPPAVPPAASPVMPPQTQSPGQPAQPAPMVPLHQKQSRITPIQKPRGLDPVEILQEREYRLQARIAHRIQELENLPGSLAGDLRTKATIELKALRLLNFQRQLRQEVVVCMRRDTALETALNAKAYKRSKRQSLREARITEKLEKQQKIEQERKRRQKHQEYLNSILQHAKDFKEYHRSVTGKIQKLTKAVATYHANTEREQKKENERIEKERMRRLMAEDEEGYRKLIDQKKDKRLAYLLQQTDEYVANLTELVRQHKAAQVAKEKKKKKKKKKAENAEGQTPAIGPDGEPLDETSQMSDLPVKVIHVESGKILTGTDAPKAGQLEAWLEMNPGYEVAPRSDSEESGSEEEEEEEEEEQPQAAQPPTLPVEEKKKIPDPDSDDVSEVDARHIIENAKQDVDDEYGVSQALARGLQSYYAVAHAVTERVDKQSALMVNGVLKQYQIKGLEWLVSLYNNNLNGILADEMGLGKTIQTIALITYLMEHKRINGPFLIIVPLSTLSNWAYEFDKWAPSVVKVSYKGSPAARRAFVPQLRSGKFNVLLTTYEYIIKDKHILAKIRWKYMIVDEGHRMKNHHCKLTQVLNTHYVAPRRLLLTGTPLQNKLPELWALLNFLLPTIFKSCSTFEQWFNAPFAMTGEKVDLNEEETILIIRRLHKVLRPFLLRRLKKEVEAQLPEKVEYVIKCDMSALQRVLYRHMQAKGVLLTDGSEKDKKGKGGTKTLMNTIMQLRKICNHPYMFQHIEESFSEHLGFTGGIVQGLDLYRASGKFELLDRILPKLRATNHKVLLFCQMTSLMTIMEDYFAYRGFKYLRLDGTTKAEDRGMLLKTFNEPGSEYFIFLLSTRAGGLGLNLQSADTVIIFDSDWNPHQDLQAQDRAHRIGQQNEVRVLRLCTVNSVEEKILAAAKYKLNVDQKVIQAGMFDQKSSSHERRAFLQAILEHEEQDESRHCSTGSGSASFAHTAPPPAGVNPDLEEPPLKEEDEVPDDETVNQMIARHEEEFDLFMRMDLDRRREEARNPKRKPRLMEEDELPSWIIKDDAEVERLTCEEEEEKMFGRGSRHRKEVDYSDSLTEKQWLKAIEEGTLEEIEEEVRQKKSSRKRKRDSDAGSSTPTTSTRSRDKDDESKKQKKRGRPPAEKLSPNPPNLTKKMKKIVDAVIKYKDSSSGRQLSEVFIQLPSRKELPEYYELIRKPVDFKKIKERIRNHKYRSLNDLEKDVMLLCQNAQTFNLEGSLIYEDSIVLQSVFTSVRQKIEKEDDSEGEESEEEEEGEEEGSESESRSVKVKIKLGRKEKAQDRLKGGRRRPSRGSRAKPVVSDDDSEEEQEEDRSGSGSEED

For `Cc1ncsc1-c1ccc(CNC(=O)[C@@H]2C[C@@H](O)CN2C(=O)[C@@H](NC(=O)CCCCCCCCCNC(=O)c2ccc(CCNc3cc(-c4ccccc4O)nnc3N)cc2)C(C)(C)C)cc1` [Compound 134, (2S,4R)-1-[(2S)-2-(10-[[4-(2-[[3-amino-6-(2-hydroxyphenyl)pyridazin-4-yl]amino]ethyl)phenyl]formamido]decanamido)-3,3-dimethylbutanoyl]-4-hydroxy-N-[[4-(4-methyl-1,3-thiazol-5-yl)phenyl]methyl]pyrrolidine-2-carboxamide], at HiBiT-BRM, the “BRM HiBit Degradation Maximum (%)” value is given as “B (“B” indicates maximum degradation ≥50%)” and the DC50 was over 100 nM. Further, at HiBit-BRG1, the DC50 was over 1000 nM and the Dmax was under 50%.
Regarding `Nc1nnc(-c2ccccc2O)cc1OCCc1ccc(C(=O)NCCCCCCCCCC(=O)NCc2ccc(S(=O)(=O)Nc3cccc4c(Cl)c[nH]c34)cc2)cc1` [Compound 12, 10-[[4-(2-[[3-amino-6-(2-hydroxyphenyl)pyridazin-4-yl]oxy]ethyl)phenyl]formamido]-N-([4-[(3-chloro-1H-indol-7-yl)sulfamoyl]phenyl]methyl)decanamide], at HiBiT-BRM, the “BRM HiBit Degradation Maximum (%)” value is “C (“C” indicates maximum degradation <50%)” and the DC50 is over 1000 nM. Besides, at HiBit-BRG1, the DC50 is over 1000 nM and the Dmax was under 50%.
Consider `Cc1ncsc1-c1ccc(CNC(=O)[C@@H]2C[C@@H](O)CN2C(=O)[C@@H](NC(=O)CCN2CCC(CC(=O)NCc3ccc(CCOc4cc(-c5ccccc5O)nnc4N)cc3)CC2)C(C)(C)C)cc1` [Compound 181, (2S,4R)-1-((S)-2-(3-(4-(2-((4-(2-((3-amino-6-(2-hydroxyphenyl)pyridazin-4-yl)oxy)ethyl)benzyl)amino)-2-oxoethyl)piperidin-1-yl)propanamido)-3,3-dimethylbutanoyl)-4-hydroxy-N-(4-(4-methylthiazol-5-yl)benzyl)pyrrolidine-2-carboxamide], for which, on HiBiT-BRM, the “BRM HiBit Degradation Maximum (%)” value was “C (“C” indicates maximum degradation <50%)” and the DC50 is over 1000 nM. Besides, on HiBit-BRG1, the DC50 was over 1000 nM and the Dmax was under 50%.
As for `Nc1nnc(-c2ccccc2O)cc1OCCc1ccc(CNC(=O)C2CC2CNC(=O)COc2cccc3c2C(=O)N(C2CCC(=O)NC2=O)C3=O)cc1` (stereo not drawn) [Compound 7, N-[[4-(2-[[3-amino-6-(2-hydroxyphenyl)pyridazin-4-yl]oxy]ethyl)phenyl]methyl]-2-[(2-[[2-(2,6-dioxopiperidin-3-yl)-1,3-dioxoisoindol-4-yl]oxy]acetamido)methyl]cyclopropane-1-carboxamide], on HiBiT-BRM, the “BRM HiBit Degradation Maximum (%)” value was “C (“C” indicates maximum degradation <50%)” and the DC50 was over 1000 nM. Besides, on HiBit-BRG1, the DC50 was over 1000 nM and the Dmax is under 50%.
`CN(CCCCCOc1cccc2c1C(=O)N(C1CCC(=O)NC1=O)C2=O)Cc1ccc(CCN(C)c2cc(-c3ccccc3O)nnc2N)cc1` (stereo not drawn) [Compound 145, 4-((5-((4-(2-((3-amino-6-(2-hydroxyphenyl)pyridazin-4-yl)(methyl)amino)ethyl)benzyl)(methyl)amino)pentyl)oxy)-2-(2,6-dioxopiperidin-3-yl)isoindoline-1,3-dione formate]: on HiBiT-BRM, the “BRM HiBit Degradation Maximum (%)” value was “C (“C” indicates maximum degradation <50%)” and the DC50 was over 1000 nM. Further, on HiBit-BRG1, the DC50 is over 1000 nM and the Dmax was under 50%.
In the case of `Nc1nnc(-c2ccccc2O)cc1N1CCN(CC(=O)N2CC(COc3ccc4c(c3)C(=O)N(C3CCC(=O)NC3=O)C4=O)C2)CC1` (stereo not drawn) [Compound 81, 5-((1-(2-(4-(3-amino-6-(2-hydroxyphenyl)pyridazin-4-yl)piperazin-1-yl)acetyl)azetidin-3-yl)methoxy)-2-(2,6-dioxopiperidin-3-yl)isoindoline-1,3-dione], on HiBiT-BRM, the “BRM HiBit Degradation Maximum (%)” value is “C (“C” indicates maximum degradation <50%)” and the DC50 is over 1000 nM. Besides, on HiBit-BRG1, the DC50 was over 1000 nM and the Dmax was under 50%.
